The values that follow come from US20240254118A1, “PRMT5 INHIBITORS AND USES THEREOF” (Gilead Sciences, Inc., priority 2022, published 2024).

Assay [1] has as its system SDMA signal (PRMT5 inhibition) in HCT116 MTAP-deleted cells. In words: Symmetric di-methyl arginine image-based high content screen assay (SDMA assay), HCT116 MTAP-deleted. In kind it is cell-based. The settings on record: SDMA assay; for EC50: Homo sapiens, HCT-116, 72 h, 3 days of treatment, cell line not given, taken as HCT116 MTAP-deleted, read-out: EC50 (SDMA assay); for EC50 selectivity (SDMA assay): taken as HCT116 WT versus MTAP-deleted. Summed up: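 HCT116 MTAP-deleted cells treated with compound until Day 3, then formalin-fixed, permeabilized and immunostained for SDMA, with DAPI nuclear counterstain. Imaged by high-content microscopy; SDMA read-out is mean Alexa 488 intensity per DAPI-defined cell, reflecting PRMT5 inhibition.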

Assay [2] deals with HCT116 MTAP-deleted cells. In words: Cell viability assay (CellTiter-Glo, 7 days), HCT116 MTAP-deleted. The settings on record: Homo sapiens, HCT-116, 168 h. Background: Cellular ATP, detected with luciferase, serves as a proxy for viable cell number.

In general, EC50 refers to the concentration needed to bring the measured effect to its halfway point. As usually defined, the CC50 is the concentration that lowers cell viability or growth by half. As to `CC(=O)N(C)N(Cc1ccc(-c2cnc(C(F)(F)F)cc2C)cc1F)C(=O)c1ccc2nc(N)c3cnn(C)c3c2c1` [Example 220, N′-acetyl-4-amino-N-(2-fluoro-4-(4-methyl-6-(trifluoromethyl)pyridin-3-yl)benzyl)-N′,1-dimethyl-1H-pyrazolo[4,3-c]quinoline-8-carbohydrazide], in assay [1], the EC50 fell in the range of 1 to 5 nM and the “EC50 selectivity (SDMA assay)” value stood at 15. Also, the CC50 in assay [2] was < 100 nM.

Turning to `CN(C(=O)C1CC1)N(Cc1ccc(Cl)cn1)C(=O)c1ccc2nc(N)c3cnn(C)c3c2c1` [Example 221, 4-amino-N-((5-chloropyridin-2-yl)methyl)-N′-(cyclopropanecarbonyl)-N′,1-dimethyl-1H-pyrazolo[4,3-c]quinoline-8-carbohydrazide], in assay [1], the 50% effective concentration (EC50) was in the range of 1 to 5 nM and the “EC50 selectivity (SDMA assay)” value was found to be 218. Besides, in assay [2], the CC50 was < 100 nM.

For the compound `CC(=O)N(C)N(Cc1ccc(-c2cnn(C(F)(F)F)c2)cc1F)C(=O)c1ccc2nc(N)c3cnn(C)c3c2c1` [Example 222, N′-acetyl-4-amino-N-(2-fluoro-4-(1-(trifluoromethyl)-1H-pyrazol-4-yl)benzyl)-N′,1-dimethyl-1H-pyrazolo[4,3-c]quinoline-8-carbohydrazide], in assay [1], the EC50 was < 1 nM and the “EC50 selectivity (SDMA assay)” value was determined as 123. Moreover, the CC50 in assay [2] is < 100 nM.

For the compound `CC(=O)N(C)N(Cc1ccc(-c2cn(C(F)(F)F)cn2)cc1F)C(=O)c1ccc2nc(N)c3cnn(C)c3c2c1` [Example 223, N′-acetyl-4-amino-N-(2-fluoro-4-(1-(trifluoromethyl)-1H-imidazol-4-yl)benzyl)-N′,1-dimethyl-1H-pyrazolo[4,3-c]quinoline-8-carbohydrazide], in assay [1], the EC50 lay within 1 to 5 nM and the “EC50 selectivity (SDMA assay)” value came out at 139. Besides, the CC50 in assay [2] was < 100 nM.

For the compound `Cc1scnc1C(=O)N(C)N(Cc1ccc(C(F)(F)F)cn1)C(=O)c1ccc2nc(N)c3cnn(C)c3c2c1` [Example 226, N′-(4-amino-1-methyl-1H-pyrazolo[4,3-c]quinoline-8-carbonyl)-N,5-dimethyl-N′-((5-(trifluoromethyl)pyridin-2-yl)methyl)thiazole-4-carbohydrazide], in assay [1], the EC50 lay in the range of 1 to 5 nM and the “EC50 selectivity (SDMA assay)” value is listed as 86. For the same compound, the CC50 in assay [2] is < 100 nM.

On to `CC(=O)N(C)N(Cc1ccc(C2CC2)nc1F)C(=O)c1ccc2nc(N)c3cnn(C)c3c2c1` [Example 228, N′-acetyl-4-amino-N-((6-cyclopropyl-2-fluoropyridin-3-yl)methyl)-N′,1-dimethyl-1H-pyrazolo[4,3-c]quinoline-8-carbohydrazide], for which, in assay [1], the half-maximal effective concentration (EC50) was 1 to 5 nM and the “EC50 selectivity (SDMA assay)” value worked out at 205. In addition, in assay [2], the CC50 was < 100 nM.

In the case of `CC(=O)N(C)N(Cc1ccc(-c2ccc(C(F)(F)F)nc2)cc1F)C(=O)c1ccc2nc(N)c3cnn(C)c3c2c1` [Example 229, N′-acetyl-4-amino-N-(2-fluoro-4-(6-(trifluoromethyl)pyridin-3-yl)benzyl)-N′,1-dimethyl-1H-pyrazolo[4,3-c]quinoline-8-carbohydrazide], in assay [1], the half-maximal effective concentration (EC50) was in the range of 1 to 5 nM and the “EC50 selectivity (SDMA assay)” value is on record as 43. Further, in assay [2], the CC50 is < 100 nM.

As for `CN(C(=O)C1CC1)N(Cc1ccc(-c2cnn(C(F)(F)F)c2)cc1F)C(=O)c1ccc2nc(N)c3cnn(C)c3c2c1` [Example 230, 4-amino-N′-(cyclopropanecarbonyl)-N-(2-fluoro-4-(1-(trifluoromethyl)-1H-pyrazol-4-yl)benzyl)-N′,1-dimethyl-1H-pyrazolo[4,3-c]quinoline-8-carbohydrazide], in assay [1], the EC50 is < 1 nM and the “EC50 selectivity (SDMA assay)” value turned out to be 228. Besides, in assay [2], the CC50 was < 100 nM.

In the case of `CC(=O)N(C)N(Cc1ccc(-c2ccc(C(F)(F)F)cc2)cc1F)C(=O)c1ccc2nc(N)c3cnn(C)c3c2c1` [Example 231, N′-acetyl-4-amino-N-((3-fluoro-4′-(trifluoromethyl)-[1,1′-biphenyl]-4-yl)methyl)-N′,1-dimethyl-1H-pyrazolo[4,3-c]quinoline-8-carbohydrazide], in assay [1], the EC50 lay within 1 to 5 nM and the “EC50 selectivity (SDMA assay)” value is 18. Also, in assay [2], the CC50 is < 100 nM.

Turning to `CC(=O)N(C)N(Cc1ccc(C2CC2)nc1)C(=O)c1ccc2nc(N)c3cnn(C)c3c2c1` [Example 232, N′-acetyl-4-amino-N-((6-cyclopropylpyridin-3-yl)methyl)-N′,1-dimethyl-1H-pyrazolo[4,3-c]quinoline-8-carbohydrazide], in assay [1], the EC50 was in the range of 1 to 5 nM and the “EC50 selectivity (SDMA assay)” value turned out to be 298. The cytotoxic concentration (CC50) in assay [2] was < 100 nM.

On to `CC(=O)N(C)N(Cc1ccc(-c2cnsc2)cc1F)C(=O)c1ccc2nc(N)c3cnn(C)c3c2c1` [Example 233, N′-acetyl-4-amino-N-(2-fluoro-4-(isothiazol-4-yl)benzyl)-N′,1-dimethyl-1H-pyrazolo[4,3-c]quinoline-8-carbohydrazide], for which, in assay [1], the EC50 is < 1 nM and the “EC50 selectivity (SDMA assay)” value stood at 89. In addition, the CC50 in assay [2] is < 100 nM.

As to `CC(=O)N(C)N(Cc1ccc(-c2ccns2)cc1F)C(=O)c1ccc2nc(N)c3cnn(C)c3c2c1` [Example 234, N′-acetyl-4-amino-N-(2-fluoro-4-(isothiazol-5-yl)benzyl)-N′,1-dimethyl-1H-pyrazolo[4,3-c]quinoline-8-carbohydrazide], in assay [1], the EC50 was < 1 nM and the “EC50 selectivity (SDMA assay)” value turned out to be 39. Moreover, the CC50 in assay [2] is < 100 nM.

As for `CN(C(=O)C1CC1)N(Cc1ccc(F)cc1)C(=O)c1ccc2nc(N)c3cnn(C)c3c2c1` [Example 235, 4-amino-N′-(cyclopropanecarbonyl)-N-(4-fluorobenzyl)-N′,1-dimethyl-1H-pyrazolo[4,3-c]quinoline-8-carbohydrazide], in assay [1], the EC50 fell in the range of 1 to 5 nM and the “EC50 selectivity (SDMA assay)” value is 259. The cytotoxic concentration (CC50) in assay [2] is < 100 nM.

On to `CC(=O)N(C)N(Cc1ccc(-c2cnn(C3CC3)c2)cc1F)C(=O)c1ccc2nc(N)c3cnn(C)c3c2c1` [Example 236, N′-acetyl-4-amino-N-(4-(1-cyclopropyl-1H-pyrazol-4-yl)-2-fluorobenzyl)-N′,1-dimethyl-1H-pyrazolo[4,3-c]quinoline-8-carbohydrazide], for which, in assay [1], the EC50 is < 1 nM and the “EC50 selectivity (SDMA assay)” value was found to be 203. Besides, the CC50 in assay [2] was < 100 nM.

As to `CN(C(=O)C1CC1)N(Cc1ccc(-c2cnn(C(F)F)c2)cc1F)C(=O)c1ccc2nc(N)c3cnn(C)c3c2c1` [Example 238, 4-amino-N′-(cyclopropanecarbonyl)-N-(4-(1-(difluoromethyl)-1H-pyrazol-4-yl)-2-fluorobenzyl)-N′,1-dimethyl-1H-pyrazolo[4,3-c]quinoline-8-carbohydrazide], in assay [1], the EC50 was < 1 nM and the “EC50 selectivity (SDMA assay)” value was 77. Moreover, the CC50 in assay [2] is < 100 nM.

In the case of `CN(C(=O)C1CC1)N(Cc1ccc(-c2cnsc2)cc1F)C(=O)c1ccc2nc(N)c3cnn(C)c3c2c1` [Example 240, 4-amino-N′-(cyclopropanecarbonyl)-N-(2-fluoro-4-(isothiazol-4-yl)benzyl)-N′,1-dimethyl-1H-pyrazolo[4,3-c]quinoline-8-carbohydrazide], in assay [1], the EC50 was < 1 nM and the “EC50 selectivity (SDMA assay)” value turned out to be 95. Besides, in assay [2], the CC50 was < 100 nM.

Turning to `CC(=O)N(C)N(Cc1ccc(-c2cnn(C(F)F)c2)cc1F)C(=O)c1ccc2nc(N)c3cnn(C)c3c2c1` [Example 242, N′-acetyl-4-amino-N-(4-(1-(difluoromethyl)-1H-pyrazol-4-yl)-2-fluorobenzyl)-N′,1-dimethyl-1H-pyrazolo[4,3-c]quinoline-8-carbohydrazide], in assay [1], the EC50 was < 1 nM and the “EC50 selectivity (SDMA assay)” value is 77. Further, in assay [2], the CC50 is < 100 nM.

With `CC(=O)N(C)N(Cc1ccc(-c2ccnn2C)cc1F)C(=O)c1ccc2nc(N)c3cnn(C)c3c2c1` [Example 243, N′-acetyl-4-amino-N-(2-fluoro-4-(1-methyl-1H-pyrazol-5-yl)benzyl)-N′,1-dimethyl-1H-pyrazolo[4,3-c]quinoline-8-carbohydrazide], in assay [1], the EC50 is < 1 nM and the “EC50 selectivity (SDMA assay)” value amounted to 171. Further, the CC50 in assay [2] was < 100 nM.

Consider `CC(=O)N(C)N(Cc1ccc(-c2ccnn2C(F)(F)F)cc1F)C(=O)c1ccc2nc(N)c3cnn(C)c3c2c1` [Example 244, N′-acetyl-4-amino-N-(2-fluoro-4-(1-(trifluoromethyl)-1H-pyrazol-5-yl)benzyl)-N′,1-dimethyl-1H-pyrazolo[4,3-c]quinoline-8-carbohydrazide], for which, in assay [1], the EC50 was < 1 nM and the “EC50 selectivity (SDMA assay)” value is given as 109. For the same compound, the half-maximal cytotoxic concentration (CC50) in assay [2] was < 100 nM.

In the case of `CN(C(=O)C12CC(C1)C2)N(Cc1ccc(C(F)(F)F)nn1)C(=O)c1cc2c(cc1F)nc(N)c1cnn(C)c12` [Example 246, 4-amino-N′-(bicyclo[1.1.1]pentane-1-carbonyl)-7-fluoro-N′, 1-dimethyl-N-((6-(trifluoromethyl)pyridazin-3-yl)methyl)-1H-pyrazolo[4,3-c]quinoline-8-carbohydrazide], in assay [1], the EC50 is 1 to 5 nM and the “EC50 selectivity (SDMA assay)” value was 288. The 50% cytotoxic concentration (CC50) in assay [2] fell in the range of 100 to 1000 nM.

In the case of `CN(C(=O)C12CC(C1)C2)N(Cc1ccc(C(F)(F)F)nn1)C(=O)c1ccc2nc(N)c3cnn(C)c3c2c1` [Example 248, 4-amino-N′-(bicyclo[1.1.1]pentane-1-carbonyl)-N′,1-dimethyl-N-((6-(trifluoromethyl)pyridazin-3-yl)methyl)-1H-pyrazolo[4,3-c]quinoline-8-carbohydrazide], in assay [1], the EC50 fell in the range of 1 to 5 nM and the “EC50 selectivity (SDMA assay)” value is recorded as 536. This compound also returned a cytotoxic concentration (CC50) in assay [2] of 100 to 1000 nM.
